Values joined by “and” are separate entries in the source; they are usually repeats but may differ in a detail not shown here. Equal entries are not always repeated. “Also recorded” adds a separate entry of the source.
How the values were obtained:
Snf1 (yeast AMPK) = test: Snf1 activation in yeast cells, p-Snf1^T210/His immunoblot; type: cell-based, Saccharomyces cerevisiae; conditions: cerulenin 20 μM, 2 h, wt Ctrl = 1, Fig. 3h
[1] = system: FASN, ACC1 and mTOR total protein levels; test: FASN, ACC1 and mTOR total protein levels, immunoblot; type: cell-based, human
Procedure: For standard SDS–PAGE and immunoblotting experiments, cells from a well of a 12-well plate were lysed in 250 μl of ice-cold Triton lysis buffer (50 mM Tris pH 7.5, 1% Triton X-100, 150 mM NaCl, 50 mM NaF, 2 mM Na-vanadate and 0.011 g ml^−1 β-glycerophosphate) supplemented with 1×PhosSTOP phosphatase inhibitors (cat. no. 4906837001, Roche) and 1×cOmplete protease inhibitors (cat. no. 11836153001, Roche) for 10 min on ice. The samples were clarified by centrifugation (20,000g, 15 min, 4 °C) and the supernatants were boiled in 1×SDS sample buffer (5×SDS sample buffer: 350 mM Tris–HCl pH 6.8, 30% glycerol, 600 mM DTT, 12.8% SDS and 0.12% bromophenol blue). The band intensities were quantified using the ImageJ software.
Data in graphs are shown as the mean ± s.e.m. *P < 0.05, **P < 0.005, ***P < 0.0005. Source numerical data and unprocessed blots are provided. Source data

mTORC1 = mTORC1 activity in MCF-7 cells, p-S6K^T389/S6K immunoblot; type: cell-based, human; conditions: cerulenin 50 μM 2 or 4 h
[2] = system: RagC lysosomal localization; test: Co-localization of RagC with LAMP2, confocal microscopy; type: cell-based, human; conditions: Ceru 4h, mean of individual cells (ED Fig. 8f); DMSO mean 0.563571
TORC1 = TORC1 activity in yeast cells, p-Sch9^T737/Sch9 immunoblot; type: cell-based, Saccharomyces cerevisiae; conditions: for p-Sch9(T737)/Sch9 (relative TORC1 activity), Mean: yeast, untreated = 1, n = 4, Fig. 2c
HEK293T cells = test: OPP incorporation assay (de novo protein synthesis); type: cell-based, human; conditions: cerulenin 50 μM, 4 h
Procedure: An OPP incorporation assay was used to test for de novo protein synthesis. […] The cells were subsequently washed with DPBS, trypsinized and fixed with ice-cold 70% ethanol for 30 min at −20 °C, followed by three washes with PBS containing 0.5% Tween-20. […] The samples were run in a Guava easyCyte HT flow cytometer (Millipore) and analysed using FlowJo (v10).

TORC2 = TORC2 activity in yeast cells, p-Ypk1^T662/Ypk1 immunoblot; type: cell-based, Saccharomyces cerevisiae; conditions: cerulenin 20 μM, 2 h; for p-Ypk1(T662)/Ypk1, Mean: wt Ctrl = 1, Fig. 3f
yeast cells = test: Drop spot growth assays on rapamycin and/or cerulenin plates; type: cell-based, Saccharomyces cerevisiae; conditions: low / sublethal doses combined
Procedure: Yeast cells (Saccharomyces cerevisiae) were cultured in liquid SC medium (1.7 g l^−1 yeast nitrogen base (cat. no. 1545, CONDA), 5 g l^−1 ammonium sulfate (cat. no. 4808211, MP Biomedicals), 20 g l^−1 glucose (cat. no. 1422, AppliChem), 2 g l^−1 amino acid dropout –His (D9520, US Biological) and 35 mg l^−1 histidine (A1341, AppliChem) at 30 °C to the exponential growth phase, unless otherwise stated in the figure legends. All yeast strains used in this study are listed in Supplementary Table 1.

[3] = system: total protein malonylation; test: Lysine malonylation in yeast cells, Mal-K/Adh1 immunoblot; type: cell-based, Saccharomyces cerevisiae; conditions: cerulenin 20 μM, 2 h, wt Ctrl = 1, Fig. 3i
Src = target: T1, Src (Homo sapiens, UniProt P12931); test: Mammalian Src kinase activity assay (IVK, Glo1 substrate); type: biochemical; conditions: for In vitro kinase assay Src, p-Glo(Y316)/Glo, Mean: 0 mM = 1; for In vitro kinase assay Src, p-Glo(Y316)/Glo: Replicates 1-3, 0 mM = 1 (Ext. Fig. 10g)
T1 construct: purchased ProQinase 0200-0000-1
Procedure: In vitro assays for phosphorylation of Glo1 by Src were performed as described previously. […] The phosphorylation reaction was stopped by the addition of 2×Laemmli buffer and boiling the samples for 5 min at 95 °C. The samples were run on SDS–PAGE gels and immunoblotted for Src-dependent phosphorylation of Glo1 at Y316 using a homemade antibody.

[4] = system: recombinant human MCD (Mal-CoA decarboxylase); conditions: read-out: apparent Michaelis constant (Km) of recombinant human MCD for Mal-CoA; cited from earlier work
Snf1 = system: T2, Snf1; test: Yeast Snf1 kinase activity assay (IVK, Mig1 substrate); type: biochemical, Saccharomyces cerevisiae; design: key to In vitro kinase assay Snf1 / In vitro kinase assay Snf1, Mean: Mig1 phosphorylation signal density relative to 0 mM Mal-CoA (=1); conditions: for In vitro kinase assay Snf1, Mean: 0 mM = 1; for In vitro kinase assay Snf1: Replicates 1-3, 0 mM = 1 (Ext. Fig. 10e)
T2 construct: The Snf1 complex was purified from a genomically C-terminally-tagged Snf1 yeast; TAP (C, cleaved yes); made in house; host or cells: S. cerevisiae strain Snf1-TAP (Open Biosystems)
Procedure: The Snf1 complex was purified from a genomically C-terminally-tagged Snf1 yeast cultured in YPD and washed with water before filtration to induce Snf1 activation. After filtration, the cells were frozen in liquid nitrogen and cryogenically disrupted using a Precellys homogenizer in lysis buffer (50 mM Tris–HCl pH 7.5, 150 mM NaCl, 0.1% NP-40, 10% glycerol, […] and Roche EDTA-free complete protease inhibitor). The cleared lysates were incubated with IgG-coupled Dynabeads (Dynabeads M-270 Epoxy; Invitrogen, Thermo Fisher Scientific) for 2 h at 4 °C. The beads were washed five times with lysis buffer and Snf1 was eluted through cleavage with TEV protease in elution buffer (50 mM Tris–HCl pH 7.5 and 0.5 mM EDTA) and stored at −80 °C after the addition of 10% glycerol. […] To test the effect of Mal-CoA (M4263, Sigma-Aldrich), the kinase reaction was pre-incubated with 2 μl of the compound from a 15× stock solution and threefold serial dilutions for 15 min. […] Proteins were separated by SDS–PAGE and stained with SYPRO Ruby (S4942, Sigma-Aldrich) to assess loading. Substrate phosphorylation was analysed by autoradiography using a Typhoon FLA 9500 phosphorimager (GE Healthcare) and the raw density of the signals was quantified using the gel analysis tool of ImageJ.

T1 sequence (P12931 whole entry): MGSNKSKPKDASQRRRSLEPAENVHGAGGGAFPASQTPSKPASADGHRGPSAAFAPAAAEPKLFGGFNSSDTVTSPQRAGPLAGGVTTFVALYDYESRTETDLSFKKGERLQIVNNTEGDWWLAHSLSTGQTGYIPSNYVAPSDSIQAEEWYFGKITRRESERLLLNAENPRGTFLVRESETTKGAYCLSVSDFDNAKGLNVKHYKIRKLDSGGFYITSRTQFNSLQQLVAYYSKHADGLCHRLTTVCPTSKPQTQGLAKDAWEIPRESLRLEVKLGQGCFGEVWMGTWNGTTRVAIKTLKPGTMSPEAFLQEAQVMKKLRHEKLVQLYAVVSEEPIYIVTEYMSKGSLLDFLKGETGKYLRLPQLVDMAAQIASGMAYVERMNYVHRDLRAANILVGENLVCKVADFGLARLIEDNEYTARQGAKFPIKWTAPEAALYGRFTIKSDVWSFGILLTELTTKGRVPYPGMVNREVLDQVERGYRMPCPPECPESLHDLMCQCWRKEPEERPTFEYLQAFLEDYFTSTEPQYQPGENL

## C/C=C/C/C=C/CCC(=O)[C@H]1O[C@H]1C(N)=O [cerulenin]
Snf1 (yeast AMPK); acc1S1157A yeast
  p-Snf1(T210)/His (Snf1), Mean: 1.0013
Snf1 (yeast AMPK); wt yeast
  p-Snf1(T210)/His (Snf1), Mean: 1.229
[1]; 4 h cerulenin
  FASN, ACC1 and mTOR total protein levels: not affected
[1]; ED Fig. 3l, relative to DMSO
  FASN/Tubulin, Mean: 1.005
[1]; ED Fig. 3m, relative to DMSO
  ACC1/Tubulin, Mean: 1.011
[1]; ED Fig. 3n, relative to DMSO
  mTOR/Tubulin, Mean: 1.067
mTORC1
  mTORC1 activity in MCF-7: downregulates
[2]
  RagC/LAMP2 colocalization (Manders' coefficient), Mean: 0.5276
TORC1
  p-Sch9(T737)/Sch9, Mean: 0.2682 and 0.4097
TORC1; cerulenin-treated yeast, Fig. 2a,c
  TORC1 activity (phosphorylation of Sch9) in vivo: strongly reduced
TORC1; 20 μM cerulenin 2h
  p-Sch9(T737)/Sch9 (relative TORC1 activity), Mean: 0.4698
TORC1; 20 μM cerulenin 3h
  p-Sch9(T737)/Sch9 (relative TORC1 activity), Mean: 0.1772
TORC1; 20 μM cerulenin 4h
  p-Sch9(T737)/Sch9 (relative TORC1 activity), Mean: 0.1415
HEK293T cells; HEK293T, n = 6, Fig. 2l
  OPP assay (median fluorescence intensity of OPP Alexa Fluor 488, relative to DMSO), Mean: 0.7454
HEK293T cells
  de novo protein synthesis: decreased
TORC2; acc1S1157A yeast
  p-Ypk1(T662)/Ypk1, Mean: 1.9821
TORC2; wt yeast
  p-Ypk1(T662)/Ypk1, Mean: 2.002
TORC2; yeast
  phosphorylation of Ypk1^T662 (TORC2 target residue): did not inhibit
Yeast cells
  combined effect of rapamycin and cerulenin on yeast growth: additive effect
[3]; acc1S1157A yeast
  Mal-K/Adh1, Mean: 8.735
[3]; wt yeast
  Mal-K/Adh1, Mean: 8.631

## CC(C)(COP(=O)(O)OP(=O)(O)OCC1OC(n2cnc3c(N)ncnc32)C(O)C1OP(=O)(O)O)C(O)C(=O)NCCC(=O)NCCSC(=O)CC(=O)O (stereo not shown) [Mal-CoA, malonyl-CoA]
Src
  IC50: 3.04 mM
Src; Mal-CoA 0.1 mM
  In vitro kinase assay Src, p-Glo(Y316)/Glo, Mean: 0.9108
  In vitro kinase assay Src, p-Glo(Y316)/Glo: 1.011 and 0.7856 and 0.936
Src; Mal-CoA 0.5 mM
  In vitro kinase assay Src, p-Glo(Y316)/Glo, Mean: 0.93
  In vitro kinase assay Src, p-Glo(Y316)/Glo: 1.127 and 0.8462 and 0.8162
Src; Mal-CoA 1 mM
  In vitro kinase assay Src, p-Glo(Y316)/Glo, Mean: 0.7653
  In vitro kinase assay Src, p-Glo(Y316)/Glo: 0.7803 and 0.7329 and 0.7827
Src; Mal-CoA 2.5 mM
  In vitro kinase assay Src, p-Glo(Y316)/Glo, Mean: 0.5664
  In vitro kinase assay Src, p-Glo(Y316)/Glo: 0.5574 and 0.682 and 0.4598
Src; Mal-CoA 5 mM
  In vitro kinase assay Src, p-Glo(Y316)/Glo, Mean: 0.4682
  In vitro kinase assay Src, p-Glo(Y316)/Glo: 0.5068 and 0.3824 and 0.5156
[4]
  Km: 220 to 520 µM
Snf1; Mal-CoA 0.073 mM
  In vitro kinase assay Snf1, Mean: 1.243
  In vitro kinase assay Snf1: 0.8487 and 1.878 and 1.003
Snf1; Mal-CoA 0.22 mM
  In vitro kinase assay Snf1, Mean: 0.975
  In vitro kinase assay Snf1: 1.111 and 0.9316 and 0.8826
Snf1; Mal-CoA 2 mM
  In vitro kinase assay Snf1, Mean: 0.9179
  In vitro kinase assay Snf1: 1.023 and 1.058 and 0.6736
Snf1; Mal-CoA 6 mM
  In vitro kinase assay Snf1, Mean: 0.7128
  In vitro kinase assay Snf1: 0.7619 and 0.8143 and 0.5621
Snf1; Mal-CoA […]
  In vitro kinase assay Snf1, Mean: 0.967
Snf1; purified Snf1, His-tagged Mig1 substrate, IC50 not calculated
  inhibition of Snf1 in IVK assay: does not inhibit; also recorded: did not demonstrate substantial inhibitory effects
